Measured values published in publication PMC5349447, “Applying a high-throughput fluorescence polarization assay for the discovery of chemical probes blocking La:RNA interactions in vitro and in cells” (PLoS ONE, 2017).

Molecular target: T1, La protein:fD1-RNA (Homo sapiens, UniProt P05455)
T1 construct: His; made in house; host or cells: E. coli BL21
T1 sequence (P05455 1-408): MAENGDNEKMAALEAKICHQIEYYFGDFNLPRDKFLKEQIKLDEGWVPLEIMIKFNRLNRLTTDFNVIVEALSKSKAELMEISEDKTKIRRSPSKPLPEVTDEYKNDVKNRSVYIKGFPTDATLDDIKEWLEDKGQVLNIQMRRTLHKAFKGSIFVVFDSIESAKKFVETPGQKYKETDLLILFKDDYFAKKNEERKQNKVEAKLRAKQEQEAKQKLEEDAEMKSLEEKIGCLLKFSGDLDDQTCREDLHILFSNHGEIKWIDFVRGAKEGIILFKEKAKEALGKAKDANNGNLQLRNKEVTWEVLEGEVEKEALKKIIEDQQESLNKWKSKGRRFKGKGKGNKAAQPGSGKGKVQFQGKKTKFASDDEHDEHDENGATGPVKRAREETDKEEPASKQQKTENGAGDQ
Assay: La:RNA fluorescence polarization assay (La-FP)
Assay type: binding
Conditions: for IC50: 1.35 μM La, 0.8 μM fD1-RNA, compound at 25, 50, 100, 1000 μM, read-out: IC50, La:fD1-RNA complex formation (La-FP); for inhibition at 100 µM: compound 100 μM; for inhibition at 1000 µM: compound 1000 μM
Procedure: Measurements of fluorescence and fluorescence polarization were performed on a Spectramax M5 microplate reader (Molecular Devices, Sunnyvale, CA) with the excitation and emission wavelengths 544 nm and 590 nm, respectively. To block unwanted residual excitation light and minimize background interference, a 570 nm “cutoff” filter was applied. Black shallow 384-well micro plates (ProxiPlate ^TM– 384 F Plus, PerkinElmer) were used to record data. To minimize the polarization effects from fluorophore, which may be bound to the surface of the well, both excitation and emission data were recorded from the top of the well. Reading time was 100 ms per well. Millipolarization units (mP) were used to express fluorescence polarization values defined by the equation mP = 1000 x [(Iv—GIh) / (Iv+ GIh)], where Iv and Ih are parallel and perpendicular emission intensity measurements corrected for background (buffer), and G-factor.
The ratio of sensitivities of the detection system for vertically and horizontally polarized light G = Iv/Ih was determined with dilution series of the fluorescence-labeled cyclin D1-RNA oligonucleotide (fD1) only (free-tracer) using SoftMax® Pro Data Acquisition & Analysis Software (Molecular Devices, Sunnyvale, CA). The assay window–the specific binding ΔmP–was defined as the difference between fluorescence polarization (mP) for La protein:fD1 reactions (mPs) and fluorescence polarization of free-fD1 reactions (mPfree): ΔmP = mPs−mPfree.
The assay was formatted using 10 μl reaction volume per well. Assay buffer (20 mM Tris-HCl pH 7.5, 3.0 mM MgCl2, 0.5 mM EDTA, 150 mM NaCl, 0.05% IGEPAL, BGG 100 μg/ml (BGG = Bovine γ-Globulin or γ-Globulins from bovine blood)) was used to dilute all ingredients. Detergent was added to prevent the potential aggregation of small compounds. The aggregation of small compounds can lead to false-positive results in HTS approaches and is indicated by a high Hill factor[50]. To find the optimal concentration of the free fluorescent tracer (fD1), which gives low and stable fluorescence polarization signal, and to calculate the G-factor, 100–1000 nM fD1 dilution series were measured in quadruplicates. Using variable fD1 concentrations, the optimal tracer:protein ratio was determined in binding experiments with increasing concentrations of La protein (1.35–1350 nM). To start the reaction, fD1 and La protein stock solutions were mixed into each well. Each reaction was performed in quadruplicates. After shaking the plate for 2 min followed by 15 min incubation at room temperature, fluorescence polarization signals were recorded as described above. Fluorescence polarization measurements were performed on different days using 7 microtiter plates (111 samples total).
High-throughput screening against the ChemBridge DIVERSet library was carried out under the following conditions: 1 μl of each compound (dissolved in 100% DMSO) was pre-incubated with 8 μl of La protein for 30 min at room temperature, followed by an additional 15 min incubation with 1 μl of fD1 (final concentration of La, fD1, and DMSO in the 10 μl reaction: 1.35 μM La, 0.8 μM fD1, 10% DMSO). The reactions were performed in duplicate. In addition to samples with the compounds, each plate contained 2 background wells (10 μl buffer only), and at least 4 wells for Ps (La and fD1) and Pfree (fD1 alone) reactions. All samples included 10% DMSO. Pilot screening was carried out with 10 mM cocktails of 10 compounds (giving a final concentration of 100 μM for each compound). […] Using the same fluorescence polarization assay format, La protein (1.35 μM) was incubated with each potential hit compound at 25, 50, 100, 1000 μM (in triplicate) for 30 min, followed by an additional 15 min incubation with 0.8 μM fD1. Data points for specific binding (B) were normalized to the maximum specific binding (Bmax), which defines complete saturation of the La protein with fD1 in the absence of a compound (B/Bmax). […]

SMILES | IC50 [µM] | inhibition at 100 µM [%] | inhibition at 1000 µM [%]
CCOC(=O)c1ccc2c(c1)C1C=CCC1C(C(=O)O)N2 (stereo not drawn) [C6, 8-(ethoxycarbonyl)-3a,4,5,9b-tetrahydro-3Hcyclopenta[c]quinoline-4-carboxylic acid] | 2.5 | 100 | 100
O=C(O)c1ccccc1C(=O)c1ccc(O)cc1O [C2, 2-(2,4-dihydroxybenzoyl)benzoic acid] | 7.5 | 100 | 100
